By Ki is commonly meant the dissociation constant of the complex between target and ligand, obtained from inhibition or displacement. Low values mean tighter binding, high ones weaker binding.

Three compounds from patent publication US9670250B2, “Alpha-helical peptidomimetic inhibitors and methods using same” (The Trustees of the University of Pennsylvania, priority 2012, dated 2017) can be followed below.

Residues, ends and D or L forms follow the SMILES beside them.

For test [1], the target named is Cathepsin S (Homo sapiens, UniProt P25774). In words: Ki (µM) (Cathepsin S). An excerpt:
(§1) Table printed on a drawing sheet, FIGURES 2A & 2B
Head of the field: Ki (µM) (Cathepsin S)
(§2) The patent's description of the figure: FIG. 2, comprising FIGS. 2A-2C, illustrate inhibitors of the present invention. FIG. 2A depicts a list of parent and lead cysteine protease inhibitors and their Ki values The bold ‘C’ represents the cysteine linked at the i,i+4 position. […] FIG. 2B is a schematic representation of linked helical peptidomimetics. α,α′-Dibromo-meta-xylene is the i,i+4 linker. FIG. 2C illustrates circular dichroism spectra of unlinked (middle) and linked (right) peptidomimetics (key at left) in 50 mM Tris-HCl buffer (pH 7.5) and 40% trifluoroethanol (TFE). α-Helical stabilization substantially increases helicity in solution.
(§3) First copying reader's note: Bold C residues and underlined sequences mark the linked (stapled) peptides; the meanings of N/A and NT are not printed on the sheet.
Where the first naming reader finds the target: head: Ki (µM) (Cathepsin S)

Test [2] addresses Cathepsin K (Homo sapiens, UniProt P43235). In words: Ki (µM) (Cathepsin K).
Text: as §1
Head of the field: Ki (µM) (Cathepsin K)
as §2, §3
Where the first naming reader finds the target: head: Ki (µM) (Cathepsin K)

Test [3] addresses Calpain-1 (Homo sapiens, UniProt P07384). In words: Ki (µM) (Calpain).
Text: as §1
Head of the field: Ki (µM) (Calpain)
as §2, §3

Cathepsin K, sequence (P43235 115-329 limits assumed): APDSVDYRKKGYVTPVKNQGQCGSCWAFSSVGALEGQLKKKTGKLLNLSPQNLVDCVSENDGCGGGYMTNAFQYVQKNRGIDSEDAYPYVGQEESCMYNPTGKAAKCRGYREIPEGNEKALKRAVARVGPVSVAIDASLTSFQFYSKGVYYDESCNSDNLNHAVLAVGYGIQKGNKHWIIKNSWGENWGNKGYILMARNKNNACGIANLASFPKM
Cathepsin S, sequence (P25774 115-331 limits assumed): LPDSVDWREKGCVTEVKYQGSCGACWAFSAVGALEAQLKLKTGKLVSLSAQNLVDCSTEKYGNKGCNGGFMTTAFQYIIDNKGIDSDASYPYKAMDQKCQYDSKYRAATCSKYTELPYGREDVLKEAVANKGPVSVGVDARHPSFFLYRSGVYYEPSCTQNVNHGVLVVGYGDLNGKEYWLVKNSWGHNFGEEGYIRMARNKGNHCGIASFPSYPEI
Calpain-1, sequence (P07384 2-714 limits assumed): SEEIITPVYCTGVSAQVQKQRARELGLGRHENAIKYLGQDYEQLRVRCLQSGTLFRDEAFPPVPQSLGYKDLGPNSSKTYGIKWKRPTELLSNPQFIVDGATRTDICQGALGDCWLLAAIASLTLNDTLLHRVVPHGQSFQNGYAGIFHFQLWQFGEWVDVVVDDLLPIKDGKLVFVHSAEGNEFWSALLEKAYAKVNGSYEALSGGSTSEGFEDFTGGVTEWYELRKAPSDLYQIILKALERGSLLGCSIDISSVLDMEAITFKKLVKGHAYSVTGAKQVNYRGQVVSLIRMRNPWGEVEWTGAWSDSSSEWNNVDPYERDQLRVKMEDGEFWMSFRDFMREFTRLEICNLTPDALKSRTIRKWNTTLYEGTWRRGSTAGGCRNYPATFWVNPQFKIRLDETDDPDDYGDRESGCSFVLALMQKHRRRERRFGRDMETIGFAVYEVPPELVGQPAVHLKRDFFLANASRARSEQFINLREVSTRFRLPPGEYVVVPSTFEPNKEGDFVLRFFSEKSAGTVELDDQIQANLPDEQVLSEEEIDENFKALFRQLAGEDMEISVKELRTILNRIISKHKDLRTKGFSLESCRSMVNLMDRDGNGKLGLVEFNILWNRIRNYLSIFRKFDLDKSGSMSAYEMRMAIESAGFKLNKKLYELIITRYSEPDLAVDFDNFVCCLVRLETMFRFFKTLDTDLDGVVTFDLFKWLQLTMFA

On to `CSCC[C@H](NC(=O)[C@H](CC(C)C)NC(=O)[C@H](CO)NC(=O)[C@H](CC(N)=O)NC(=O)[C@H](CCSC)NC(=O)[C@@H](NC(=O)[C@H](CCC(=O)O)NC(=O)[C@H](CCC(=O)O)NC(=O)[C@H](CO)NC(=O)[C@@H](N)[C@@H](C)O)C(C)C)C(=O)N[C@@H](CO)C(=O)N[C@@H](CO)C(=O)O` [SEQ ID NO:14, TSEEVMNSLMSS] (H-TSEEVMNSLMSS-OH; N-terminus and C-terminus assumed), for which, in test [1], the inhibitory constant (Ki) was greater than 100 µM.

The compound `CSCC[C@H](NC(=O)[C@H](CCCCN)NC(=O)[C@H](CCC(N)=O)NC(=O)[C@@H](NC(=O)[C@@H](NC(=O)[C@H](CCC(=O)O)NC(=O)[C@H](CCC(=O)O)NC(=O)[C@@H](N)CO)C(C)C)C(C)C)C(=O)N[C@H](C(=O)NCC(=O)N[C@@H](CC(C)C)C(=O)O)[C@@H](C)O` [SEQ ID NO:32, SEEVVQKMTGL] (H-SEEVVQKMTGL-OH; N-terminus and C-terminus assumed) yielded an inhibition constant Ki in test [2] greater than 100 µM.

In test [3], `CC[C@H](C)[C@H](N)C(=O)N1CCC[C@H]1C(=O)N1CCC[C@H]1C(=O)N[C@@H](CCCCN)C(=O)N[C@@H](Cc1ccc(O)cc1)C(=O)N[C@@H](CCCNC(=N)N)C(=O)N[C@@H](CCC(=O)O)C(=O)N[C@@H](CC(C)C)C(=O)N[C@@H](CC(C)C)C(=O)N[C@@H](C)C(=O)O` [SEQ ID NO:62, IPPKYRELLA] (H-IPPKYRELLA-OH; N-terminus and C-terminus assumed) gave a Ki greater than 100 µM.
